Data from article PMC8497620, “Structure and inhibition of Cryptococcus neoformans sterylglucosidase to develop antifungal agents” (Nature Communications, 2021).
“And” between values parts separate entries of the source, which are not always exact repeats. Equal values may be shown once.

Legend:
Format in all cases: biochemical
[1] = biological target: T1, Cerezyme (human glucosylceramidase) (Homo sapiens, UniProt P04062, R534H); experiment: Effect on Cerezyme activity with res-glp substrate; details: substrate resorufin 3β-D-glucopyranoside (100 µM)
T1 construct: purchased Genzyme Corporation, Cambridge, MA, USA
T1 sequence (P04062 40-536 R534H): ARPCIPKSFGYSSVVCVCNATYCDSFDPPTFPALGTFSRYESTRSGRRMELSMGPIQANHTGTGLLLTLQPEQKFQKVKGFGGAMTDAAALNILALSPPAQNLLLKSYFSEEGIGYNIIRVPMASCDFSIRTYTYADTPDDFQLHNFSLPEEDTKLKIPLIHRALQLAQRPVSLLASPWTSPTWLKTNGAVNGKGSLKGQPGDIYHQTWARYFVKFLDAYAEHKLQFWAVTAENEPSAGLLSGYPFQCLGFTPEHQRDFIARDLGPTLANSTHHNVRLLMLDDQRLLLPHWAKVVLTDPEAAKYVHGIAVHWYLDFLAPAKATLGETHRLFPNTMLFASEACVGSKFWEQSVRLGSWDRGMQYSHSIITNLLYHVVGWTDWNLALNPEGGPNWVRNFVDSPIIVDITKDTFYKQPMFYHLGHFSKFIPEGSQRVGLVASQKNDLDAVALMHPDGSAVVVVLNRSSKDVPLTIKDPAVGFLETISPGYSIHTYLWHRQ
Description: Resorufin-3β-D-glucopyranoside (res-glp, Sigma-Aldrich) enzyme kinetic assays were performed according to methods described by Urban et al.[16] with modifications. Reaction buffer contained 50 mM citric acid, 176 mM K2HPO4, pH 6, 0.01% Tween-20, and 10 mM sodium taurocholate. The reactions were carried out in black 96-well plates using 20 ng of enzyme with 100 μM res-glp substrate. In all, 10 μL/well of res-glp substrate was added to each well and the reaction was initiated by adding 20 μL enzyme (20 ng). After incubation at 37 °C for 30–40 min, the fluorescence was read at an excitation of 570 (±10) nm and an emission of 610 (±10) nm on a VersaMax™ Microplate Reader from Molecular Devices. A standard curve was prepared with serial dilutions of the free fluorophore, resorufin, in the same volume of assay buffer. All reactions were linear with respect to time and protein concentration and the pH, temperature, and dimethyl sulfoxide (DMSO) optimal tolerance was verified.
The Z′-factor was used for the assessment of the efficiency of the HTS assay for each individual plate. Values greater than 0.5 has been considered as an indicator of an excellent screening assay quality. […] The top three hits identified were re-tested in serial dilution against Sgl1 and cerezyme.

Cerezyme = biological target: T2, Cerezyme (Homo sapiens, UniProt P04062, R534H); experiment: Cerezyme activity on mammalian C18-glucosylceramide in presence of hits (LC-MS); details: for C18-ceramide: hits at 100 µM, 10 µg Cerezyme, 10 µg mammalian C18-glucosylceramide, pH 5.5, 37°C, 3 hours; for inhibition of human Cerezyme: physiological mammalian glucosylceramide substrate, 100 µM compound
T2 construct: purchased Genzyme Corporation, Cambridge, MA, USA
T2 sequence (P04062 40-536 R534H): T1 sequence (P04062 40-536 R534H)
Description: Supplementary figure 8. Cerezyme is not inhibited by its 1, 9 and 15. 10 µg of Cerezyme was added to 10 µg of mammalian C18-glucosylceramide in the presence of 100 µM of compound hits. The reactions were performed in 50 mM sodium acetate buffer pH5.5 and incubated at 37°C for 3 hours. The amount of C18-ceramide formed was quantified by LC-MS. There was no significant difference between the control (no drug) and samples with 100 µM of hits 1, 9 and 15 (p>0.05). Statistical analysis by one-way ANOVA, Dunnett's Multiple Comparison Test. Data represent the mean +/- SD of n=3 independent experiments.

C. neoformans Sgl1 = C. neoformans Sgl1 (Cryptococcus neoformans var. grubii, UniProt J9W473); experiment: Sgl1 inhibition with res-glp substrate (HTS, single-compound dose-response); details: for inhibition at 0.125 µM: read-out: % Sgl1 Inhibition, 0.125 µM compound; for inhibition at 0.125 µM / inhibition at 0.5 µM / inhibition at 1 µM / inhibition at 2 µM / inhibition at 4 µM / inhibition at 8 µM / inhibition at […] / % Sgl1 Inhibition: substrate resorufin 3β-D-glucopyranoside (100 µM); for inhibition at 0.5 µM: read-out: % Sgl1 Inhibition, 0.5 µM compound; for inhibition at 1 µM: read-out: % Sgl1 Inhibition, 1 µM compound; for inhibition at 2 µM: read-out: % Sgl1 Inhibition, 2 µM compound; for inhibition at 4 µM: read-out: % Sgl1 Inhibition, 4 µM compound; for inhibition at 8 µM: read-out: % Sgl1 Inhibition, 8 µM compound; for inhibition at […]: read-out: % Sgl1 Inhibition, […] compound; for IC50: res-glp as substrate (100 µM), primary screen, read-out: IC50 against Sgl1
C. neoformans Sgl1, sequence (J9W473 entry or part of it): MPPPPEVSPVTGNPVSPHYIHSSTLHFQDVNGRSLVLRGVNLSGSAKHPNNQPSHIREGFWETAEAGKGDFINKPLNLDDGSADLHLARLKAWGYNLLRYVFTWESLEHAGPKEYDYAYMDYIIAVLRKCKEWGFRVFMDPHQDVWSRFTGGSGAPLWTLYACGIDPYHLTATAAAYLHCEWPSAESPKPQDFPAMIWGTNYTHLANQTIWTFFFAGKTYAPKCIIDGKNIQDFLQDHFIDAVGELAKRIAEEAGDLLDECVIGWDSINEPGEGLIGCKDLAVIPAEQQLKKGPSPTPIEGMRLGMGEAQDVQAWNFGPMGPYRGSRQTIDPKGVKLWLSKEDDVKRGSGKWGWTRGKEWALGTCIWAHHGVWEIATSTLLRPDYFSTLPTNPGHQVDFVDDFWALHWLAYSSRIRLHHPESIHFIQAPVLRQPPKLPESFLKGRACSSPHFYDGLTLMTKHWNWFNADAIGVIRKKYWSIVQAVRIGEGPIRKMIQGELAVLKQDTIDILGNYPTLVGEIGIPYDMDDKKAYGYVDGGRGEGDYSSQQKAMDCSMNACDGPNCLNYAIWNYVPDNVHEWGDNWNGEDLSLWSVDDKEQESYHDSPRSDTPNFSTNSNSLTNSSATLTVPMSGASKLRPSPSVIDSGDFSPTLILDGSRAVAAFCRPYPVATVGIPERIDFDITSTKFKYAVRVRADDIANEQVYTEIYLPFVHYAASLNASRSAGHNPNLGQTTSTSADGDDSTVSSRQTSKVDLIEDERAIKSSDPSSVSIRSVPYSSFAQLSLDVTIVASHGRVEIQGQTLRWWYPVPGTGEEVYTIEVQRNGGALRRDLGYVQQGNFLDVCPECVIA

Compound: COc1cccc(-c2ncc(CN3CCC(O)(CO)CC3)s2)c1 [Hit 1]
- % Cerezyme Inhibition ([1]; 12.5427 µM compound): 4.937% and 1.065%
- % Cerezyme Inhibition ([1]; 25.0854 µM compound): 6.583%
- inhibition at 25.0854 µM ([1]; 25.0854 µM compound): 7.34%
- % Cerezyme Inhibition ([1]; 50.1708 µM compound): 7.795%
- inhibition at 50.1708 µM ([1]; 50.1708 µM compound): 8.81%
- inhibition at 100.342 µM ([1]; 100.342 µM compound): 9.86%
- % Cerezyme Inhibition ([1]; 200.683 µM compound): 9.338%
- inhibition at 200.683 µM ([1]; 200.683 µM compound): 9.63%
- inhibition at 401.367 µM ([1]; 401.367 µM compound): 9.86%
- % Cerezyme Inhibition ([1]; 800 µM compound): 12.9786%
- inhibition at 800 µM ([1]; 800 µM compound): 10.5%
- C18-ceramide (Cerezyme): 871.82 pmol/mL and 1017.11 pmol/mL and 1021.42 pmol/mL
- inhibition of human Cerezyme (Cerezyme): not inhibited
- inhibition at 0.125 µM (C. neoformans Sgl1): 0%
- inhibition at 0.5 µM (C. neoformans Sgl1): 14%
- inhibition at 1 µM (C. neoformans Sgl1): 45.8%
- inhibition at 2 µM (C. neoformans Sgl1): 56.1%
- inhibition at 4 µM (C. neoformans Sgl1): 74%
- inhibition at 8 µM (C. neoformans Sgl1): 90.2%
- inhibition at […] (C. neoformans Sgl1): 0%
- IC50 (C. neoformans Sgl1): ~1000 nM and 1000 nM

Compound: CN1C[C@@H](NC(=O)Cc2ccc3c(c2)NC(=O)CO3)C[C@@H]1CO [Hit 9]
- % Cerezyme Inhibition ([1]; 12.5427 µM compound): 0.6044%
- inhibition at 12.5427 µM ([1]; 12.5427 µM compound): 1.03%
- % Cerezyme Inhibition ([1]; 25.0854 µM compound): 2.143%
- inhibition at 25.0854 µM ([1]; 25.0854 µM compound): 2.64%
- % Cerezyme Inhibition ([1]; 50.1708 µM compound): 6.259%
- inhibition at 50.1708 µM ([1]; 50.1708 µM compound): 5.68%
- % Cerezyme Inhibition ([1]; 100.342 µM compound): 7.029%
- inhibition at 100.342 µM ([1]; 100.342 µM compound): 6.87%
- % Cerezyme Inhibition ([1]; 200.683 µM compound): 9.927%
- inhibition at 200.683 µM ([1]; 200.683 µM compound): 9.82%
- % Cerezyme Inhibition ([1]; 401.367 µM compound): 12.2165%
- inhibition at 401.367 µM ([1]; 401.367 µM compound): 14.1%
- inhibition at 800 µM ([1]; 800 µM compound): 16.7%
- C18-ceramide (Cerezyme): 1045.62 pmol/mL and 1138.29 pmol/mL and 953.48 pmol/mL
- inhibition of human Cerezyme (Cerezyme): not inhibited
- % Sgl1 Inhibition (C. neoformans Sgl1; 0.125 µM compound): 56.0175% and 54.9266% and 54.4568%
- % Sgl1 Inhibition (C. neoformans Sgl1; 0.5 µM compound): 83.3956% and 82.99% and 82.7099%
- % Sgl1 Inhibition (C. neoformans Sgl1; 1 µM compound): 91.001% and 90.7947% and 90.4821%
- % Sgl1 Inhibition (C. neoformans Sgl1; 2 µM compound): 95.2753% and 95.0933% and 95.0009%
- % Sgl1 Inhibition (C. neoformans Sgl1; 4 µM compound): 97.4258% and 97.3045% and 97.2378%
- % Sgl1 Inhibition (C. neoformans Sgl1; 8 µM compound): 98.6119% and 98.5721% and 98.4808%
- inhibition at 0.125 µM (C. neoformans Sgl1): 57.2%
- inhibition at 0.5 µM (C. neoformans Sgl1): 84%
- inhibition at 1 µM (C. neoformans Sgl1): 91.3%
- inhibition at 2 µM (C. neoformans Sgl1): 95.5%
- inhibition at 4 µM (C. neoformans Sgl1): 97.5%
- inhibition at 8 µM (C. neoformans Sgl1): 98.6%
- inhibition at […] (C. neoformans Sgl1): 73.1%
- IC50 (C. neoformans Sgl1): ~1000 nM

Compound: CC(C)c1nc(N[C@@H]2C[C@@H](CO)N(C)C2)c2cnn(C)c2n1 [Hit 15]
- inhibition at 12.5427 µM ([1]; 12.5427 µM compound): 0%
- % Cerezyme Inhibition ([1]; 25.0854 µM compound): 1.771%
- inhibition at 25.0854 µM ([1]; 25.0854 µM compound): 1.74%
- % Cerezyme Inhibition ([1]; 50.1708 µM compound): 3.823%
- inhibition at 50.1708 µM ([1]; 50.1708 µM compound): 2.11%
- % Cerezyme Inhibition ([1]; 100.342 µM compound): 6.414%
- inhibition at 100.342 µM ([1]; 100.342 µM compound): 5.46%
- % Cerezyme Inhibition ([1]; 200.683 µM compound): 6.666%
- inhibition at 200.683 µM ([1]; 200.683 µM compound): 9.37%
- % Cerezyme Inhibition ([1]; 401.367 µM compound): 12.8892%
- inhibition at 401.367 µM ([1]; 401.367 µM compound): 13.2%
- % Cerezyme Inhibition ([1]; 800 µM compound): 12.1079%
- inhibition at 800 µM ([1]; 800 µM compound): 16.6%
- C18-ceramide (Cerezyme): 1251.6 pmol/mL and 855.67 pmol/mL and 1299.99 pmol/mL
- inhibition of human Cerezyme (Cerezyme): not inhibited
- % Sgl1 Inhibition (C. neoformans Sgl1; 0.125 µM compound): 9.082% and 9.377% and 8.377%
- % Sgl1 Inhibition (C. neoformans Sgl1; 0.5 µM compound): 26.2814% and 26.2434% and 24.9511%
- % Sgl1 Inhibition (C. neoformans Sgl1; 1 µM compound): 39.5402% and 38.9055% and 37.6785%
- % Sgl1 Inhibition (C. neoformans Sgl1; 2 µM compound): 58.3844% and 57.9199% and 56.5095%
- % Sgl1 Inhibition (C. neoformans Sgl1; 4 µM compound): 75.564% and 74.8313% and 74.139%
- % Sgl1 Inhibition (C. neoformans Sgl1; 8 µM compound): 85.0771% and 84.7714% and 84.105%
- inhibition at 0.125 µM (C. neoformans Sgl1): 10.2%
- inhibition at 0.5 µM (C. neoformans Sgl1): 27.9%
- inhibition at 1 µM (C. neoformans Sgl1): 40.8%
- inhibition at 2 µM (C. neoformans Sgl1): 59.6%
- inhibition at 4 µM (C. neoformans Sgl1): 76.4%
- inhibition at 8 µM (C. neoformans Sgl1): 85.5%
- inhibition at […] (C. neoformans Sgl1): 14.9%
- IC50 (C. neoformans Sgl1): ~1000 nM and 1000 nM
